The results in this text go back to article PMC9304416, “A phosphite-based screening platform for identification of enzymes favoring nonnatural cofactors” (Scientific Reports, 2022).

The target in this test is T1, ME (malic enzyme) (Escherichia coli, UniProt P26616, L301R/Q392C, form not given).
T1 construct: gene maeA; C-terminal His6 tag kept; expressed in E. coli BW14329 from pTrc99K; crude lysate
In words: formazan (MTT/phenazine ethosulfate) absorbance at […] nm, crude lysate. The test is classed as biochemical. As to conditions: 0.05 mM NCD; 5.0 mM L-malate; 50 mM HEPES pH 7.5; 10 mM MgCl2; room temperature.

T1 sequence (P26616 whole entry L301R/Q392C, form open): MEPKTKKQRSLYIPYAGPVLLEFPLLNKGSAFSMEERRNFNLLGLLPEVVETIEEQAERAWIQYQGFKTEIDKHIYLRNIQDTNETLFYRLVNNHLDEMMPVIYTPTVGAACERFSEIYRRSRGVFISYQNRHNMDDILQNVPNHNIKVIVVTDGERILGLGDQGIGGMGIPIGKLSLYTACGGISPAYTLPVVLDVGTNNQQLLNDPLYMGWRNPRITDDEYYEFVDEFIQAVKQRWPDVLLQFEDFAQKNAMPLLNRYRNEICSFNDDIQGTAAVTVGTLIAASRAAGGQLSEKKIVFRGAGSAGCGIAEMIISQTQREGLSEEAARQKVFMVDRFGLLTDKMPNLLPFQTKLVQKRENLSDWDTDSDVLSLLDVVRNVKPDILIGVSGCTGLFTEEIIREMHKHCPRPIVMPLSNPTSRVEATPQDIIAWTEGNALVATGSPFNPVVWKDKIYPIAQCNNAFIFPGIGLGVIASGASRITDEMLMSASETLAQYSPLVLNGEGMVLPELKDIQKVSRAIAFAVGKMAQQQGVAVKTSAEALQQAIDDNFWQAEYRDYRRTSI

Take `NC(=O)c1ccc[n+]([C@@H]2O[C@H](COP(=O)(O)OP(=O)(O)OC[C@H]3O[C@@H](n4ccc(N)nc4=O)[C@H](O)[C@@H]3O)[C@@H](O)[C@H]2O)c1` [NCD]: the “formazan (MTT/phenazine ethosulfate) absorbance at 570 nm, crude lysate” value is “ME* or ME-NCD, activity of ME* or ME toward NCD”.
